Measured values reported in publication PMC9404711 (Antibiotics, 2022).
Where two headings read alike, the source gives them in different places. Non-standard residues stand in square brackets, D forms with d. Residues, ends and D or L forms follow the SMILES beside them. *: point of attachment. Myristoyl = CCCCCCCCCCCCCC(=O)*; Lauroyl = CCCCCCCCCCCC(=O)*; Decanoyl = CCCCCCCCCC(=O)*; Octanoyl = CCCCCCCC(=O)*; Hexanoyl = CCCCCC(=O)*

Assays:
[1] = tested on: S. aureus (ATCC 29213); assay: MIC determination, broth microdilution; format: cell-based, Staphylococcus aureus; conditions: S. aureus ATCC 29213, MHB-II, 37 °C, 18–24 h, triplicate
Protocol: (§1) The following bacteria were grown in cation-adjusted Muller-Hinton broth at 37 °C with shaking: A. baumannii (ATCC 19606), E. coli (ATCC 25922), K. pneumoniae (ATCC 13883), P. aeruginosa (ATCC 27853), and S. aureus (ATCC 29213).
(§2) The MIC experiments were performed in triplicate, as described in Jensen et al.. Briefly, all peptide stock solutions were prepared by dissolving each peptide in Milli-Q water to obtain a concentration of 10 mg/mL. A bacterial concentration of 10^6 CFU/mL was obtained through the dilution of an overnight culture (MHB-II medium). When the overnight culture was prepared, the OD was measured using a spectrophotometer and when an OD value between 0.2 and 0.4 was obtained, the culture was diluted to OD = 0.002. The MIC determination was carried out in 96-well polypropylene microtitre plates. […] A final bacterial inoculum of 5 × 10^5 CFU/mL per well was obtained by adding 50 μL bacterial suspension to the microtiter plates. The plates were incubated at 37 °C for 18–24 h. To verify the CFU, 10 μL of bacteria suspension was transferred to 990 μL 0.9 % saline solution, from which a 10-fold dilution was carried out. Then, 100 μL of the dilution was plated on an LB plate and left for bacterial growth overnight at 37 °C. Colistin and vancomycin were used as the positive controls.

[2] = tested on: E. coli (ATCC 25922); format: cell-based, Escherichia coli; conditions: E. coli ATCC 25922, MHB-II, 37 °C, 18–24 h, triplicate
Protocol: as §1, §2

[3] = tested on: K. pneumoniae (ATCC 13883); format: cell-based, Klebsiella pneumoniae; conditions: K. pneumoniae ATCC 13883, MHB-II, 37 °C, 18–24 h, triplicate
Protocol: as §1, §2

[4] = tested on: A. baumannii (ATCC 19606); format: cell-based, Acinetobacter baumannii; conditions: A. baumannii ATCC 19606, MHB-II, 37 °C, 18–24 h, triplicate
Protocol: as §1, §2

[5] = tested on: P. aeruginosa (ATCC 27853); format: cell-based, Pseudomonas aeruginosa; conditions: P. aeruginosa ATCC 27853, MHB-II, 37 °C, 18–24 h, triplicate
Protocol: as §1, §2

[6] = Hydrophobicity by analytical RP-HPLC (%B at elution); format: physicochemical; conditions: chromatographic, analytical reversed-phase HPLC, Waters Symmetry C18 5 μm 4.6 × 250 mm; A: H2O + 0.1% TFA, B: 90:10 ACN-H2O + 0.1% TFA
Protocol: Peptide purity was determined as described previously by analytical RP-HPLC using a Waters 717 plus Autosampler, In-line Degasser AF, 600 Controller, and 2996 Photodiode Array Detector; the column used was a Waters Symmetry C18 column (5 μm, 4.6 mm × 250 mm, Milford, MA, USA). An aqueous acetonitrile (ACN) gradient with 0.1% TFA added (mixing eluent A: H2O + 0.1% TFA and eluent B: 90:10 ACN-H2O + 0.1% TFA) was employed using milli-Q water. Preparative RP-HPLC was performed by using a Waters XSelect Peptide CSH C18 OBDTM column (5 μm, 19 mm × 250 mm, Milford, MA, USA) with the same eluents as for analytical HPLC.
*Hydrophobicity as indicated by the percentage of mobile phase B (%B) at the peak elution time on analytical

[7] = tested on: human erythrocytes; conditions: 150 μM peptide; 0.5% (v/v) red blood cell suspension in PBS, 1 h at 37 °C, absorbance 414 nm; melittin positive control, PBS negative control; three wells
Protocol: PBS served as the negative control and 5 μM melittin served as the positive control. All melittin solutions were prepared in Protein LoBind Eppendorf tubes to prevent the adsorption of melittin to the inner surface of the tubes.
Preparation of peptide solutions and melittin: A 5 μM melittin solution in PBS was prepared the day before the hemolysis experiment. First, 150 μL of this solution was transferred to each of the positive control wells and stored in the fume hood to coat the wells. On the day of the experiment, the melittin solution was discarded and the wells were washed with 3 × PBS. A 2.5 μM melittin solution in PBS was prepared and 75 μL was transferred to the wells. PBS (150 μL) was used as the negative control. A solution of each peptide was prepared by dissolving the peptide in 0.5 mL PBS to obtain a concentration of 300 μM. Each peptide solution (150 μL) was transferred to the wells in three wells each in row A, and the plate was diluted down.
Preparation of the red blood cell suspension: 1 mL of type O- whole blood in citrate was transferred to a cryotube. The whole blood was washed with 3 × PBS; adding 3, 3, and 4 mL of PBS, respectively. In between, the blood was centrifuged for 8 min (3000, 3000, and 4000 rpm, respectively) and the supernatant was removed after each centrifugation. A 0.5% (v/v) blood suspension was prepared by adding 40 μL of the washed blood cells to 8 mL of PBS. Then, 75 μL of the red blood cell suspension was transferred to each well and mixed gently. The plate was sealed and incubated for 1 h at 37 °C. After incubation, the plate was centrifuged at 4000 rpm for 10 min. Afterwards, 60 μL of the supernatant from each well was quickly transferred to an ELISA plate.
The absorbance was determined at 414 nm, and Equation (1) below was used to calculate the hemolytic activity of the peptides.

Row | Structure (SMILES) | MIC SA ([1]; inoculum 5 × 10^5 CFU/mL) | MIC SA ([1]; value in brackets) | MIC EC ([2]; inoculum 5 × 10^5 CFU/mL) | MIC EC ([2]; value in brackets) | MIC KP ([3]; inoculum 5 × 10^5 CFU/mL) | MIC KP ([3]; value in brackets) | MIC AB ([4]; inoculum 5 × 10^5 CFU/mL) | MIC AB ([4]; value in brackets) | MIC PA ([5]; inoculum 5 × 10^5 CFU/mL) | MIC PA ([5]; value in brackets) | %B (hydrophobicity: percentage of mobile phase B at the peak elution time) [6] | % hemolysis of human erythrocytes [7]
1 | CCCCCC(=O)N[C@H](CCCCN)C(=O)N[C@H](CCCCN)C(=O)N[C@H](CC(C)C)C(=O)N[C@H](Cc1ccccc1)C(=O)N[C@H](CCCCN)C(=O)N[C@H](CCCCN)C(=O)N[C@@H](C(=O)N[C@H](CC(C)C)C(=O)N[C@H](CCCNC(=N)N)C(=O)N[C@H](Cc1ccc(O)cc1)C(=O)N[C@H](CC(C)C)C(N)=O)[C@H](C)CC [compound 2] (Hexanoyl-[dK][dK][dL][dF][dK][dK][dI][dL][dR][dY][dL]-NH2) | 64 mg/L | 41.4 µM | 8 mg/L | 5.2 µM | 8 mg/L | 5.2 µM | 4 mg/L | 2.6 µM | 32 mg/L | 20.7 µM | 67.9 %B | 100%
2 | CCCCCCCC(=O)N[C@H](CCCCN)C(=O)N[C@H](CCCCN)C(=O)N[C@H](CC(C)C)C(=O)N[C@H](Cc1ccccc1)C(=O)N[C@H](CCCCN)C(=O)N[C@H](CCCCN)C(=O)N[C@@H](C(=O)N[C@H](CC(C)C)C(=O)N[C@H](CCCNC(=N)N)C(=O)N[C@H](Cc1ccc(O)cc1)C(=O)N[C@H](CC(C)C)C(N)=O)[C@H](C)CC [compound 3] (Octanoyl-[dK][dK][dL][dF][dK][dK][dI][dL][dR][dY][dL]-NH2) |  | 40.1 µM | 16 mg/L | 10.2 µM | 8 mg/L | 5.1 µM | 4 mg/L | 2.5 µM | 32 mg/L | 20.3 µM | 64.1 %B | 100%
3 | CCCCCCCCCC(=O)N[C@H](CCCCN)C(=O)N[C@H](CCCCN)C(=O)N[C@H](CC(C)C)C(=O)N[C@H](Cc1ccccc1)C(=O)N[C@H](CCCCN)C(=O)N[C@H](CCCCN)C(=O)N[C@@H](C(=O)N[C@H](CC(C)C)C(=O)N[C@H](CCCNC(=N)N)C(=O)N[C@H](Cc1ccc(O)cc1)C(=O)N[C@H](CC(C)C)C(N)=O)[C@H](C)CC [compound 4] (Decanoyl-[dK][dK][dL][dF][dK][dK][dI][dL][dR][dY][dL]-NH2) | 32 mg/L | 20.0 µM | 32 mg/L | 20.0 µM | 32 mg/L | 20.0 µM | 32 mg/L | 20.0 µM | 32 mg/L | 20.0 µM | 85.0 %B | 100%
4 | CCCCCCCCCCCC(=O)N[C@H](CCCCN)C(=O)N[C@H](CCCCN)C(=O)N[C@H](CC(C)C)C(=O)N[C@H](Cc1ccccc1)C(=O)N[C@H](CCCCN)C(=O)N[C@H](CCCCN)C(=O)N[C@@H](C(=O)N[C@H](CC(C)C)C(=O)N[C@H](CCCNC(=N)N)C(=O)N[C@H](Cc1ccc(O)cc1)C(=O)N[C@H](CC(C)C)C(N)=O)[C@H](C)CC [compound 5] (Lauroyl-[dK][dK][dL][dF][dK][dK][dI][dL][dR][dY][dL]-NH2) | 64 mg/L | 39.2 µM | 64 mg/L | 39.2 µM | 64 mg/L | 39.2 µM | 64 mg/L | 39.2 µM | 64 mg/L | 39.2 µM | 90.5 %B | 100%
5 | CCCCCCCCCCCCCC(=O)N[C@H](CCCCN)C(=O)N[C@H](CCCCN)C(=O)N[C@H](CC(C)C)C(=O)N[C@H](Cc1ccccc1)C(=O)N[C@H](CCCCN)C(=O)N[C@H](CCCCN)C(=O)N[C@@H](C(=O)N[C@H](CC(C)C)C(=O)N[C@H](CCCNC(=N)N)C(=O)N[C@H](Cc1ccc(O)cc1)C(=O)N[C@H](CC(C)C)C(N)=O)[C@H](C)CC [compound 6] (Myristoyl-[dK][dK][dL][dF][dK][dK][dI][dL][dR][dY][dL]-NH2) | > 64 mg/L |  | > 64 mg/L | > 38.6 µM | > 64 mg/L | > 38.6 µM | > 64 mg/L | > 38.6 µM | > 64 mg/L | > 38.6 µM | 96.5 %B | 100%
6 | CC[C@@H](C)[C@@H](NC(=O)[C@@H](CCCCN)NC(=O)[C@@H](CCCCN)NC(=O)[C@@H](Cc1ccccc1)NC(=O)[C@@H](CC(C)C)NC(=O)[C@@H](CCCCN)NC(=O)[C@H](N)CCCCN)C(=O)N[C@H](CC(C)C)C(=O)N1CCCC[C@H](C(N)=O)NC(=O)[C@@H](Cc2ccc(O)cc2)NC(=O)[C@@H](CCCNC(=N)N)NC(=O)C1 [compound 7] | > 64 mg/L | > 42.6 µM | > 64 mg/L | > 42.6 µM | > 64 mg/L | > 42.6 µM | > 64 mg/L | > 42.6 µM | > 64 mg/L | > 42.6 µM | 44.1 %B | 3%
7 | CC[C@@H](C)[C@@H](NC(=O)[C@@H](CCCCN)NC(=O)[C@@H](CCCCN)NC(=O)[C@@H](Cc1ccccc1)NC(=O)[C@@H](CC(C)C)NC(=O)[C@@H](CCCCN)NC(=O)[C@H](N)CCCCN)C(=O)N1CCCC[C@H](C(N)=O)NC(=O)[C@@H](Cc2ccc(O)cc2)NC(=O)[C@@H](CCCNC(=N)N)NC(=O)[C@@H](CC(C)C)NC(=O)C1 [compound 8] | > 64 mg/L | > 42.6 µM | > 64 mg/L | > 42.6 µM | > 64 mg/L | > 42.6 µM | > 64 mg/L | > 42.6 µM | > 64 mg/L | > 42.6 µM |  | 3%
